What was measured:
Test in all cases: relative viability (nuclei count vs DMSO), 5 days (fraction); higher = more cells survive
[1] = compound: CN[C@@H]1C[C@H]2O[C@@](C)([C@@H]1OC)n1c3ccccc3c3c4c(c5c6ccccc6n2c5c31)C(=O)NC4 [Staurosporine] + Nc1nc2[nH]cc(CCc3ccc(C(=O)N[C@@H](CCC(=O)O)C(=O)O)cc3)c2c(=O)[nH]1 [Pemetrexed] (partner 0.2 µM)
Procedure, shortened: (§1)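 Values are medians from duplicate plates. Each reflects relative viability, defined as the nuclei count of treated wells over that of vehicle wells. Lung cancer cell lines in 1536-well plates were pin-tool dosed one day after seeding with one drug alone or with a fixed anchor-drug dose plus five library-drug doses (not always all listed) in √10 steps, then fixed, stained and imaged at 4× after 5 days.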

[2] = compound: CN[C@@H]1C[C@H]2O[C@@](C)([C@@H]1OC)n1c3ccccc3c3c4c(c5c6ccccc6n2c5c31)C(=O)NC4 [Staurosporine] + CC(=O)c1c(C)c2cnc(Nc3ccc(N4CCNCC4)cn3)nc2n(C2CCCC2)c1=O [Palbociclib] (partner 0.5 µM)
Procedure, shortened: as §1

[3] = compound: CN[C@@H]1C[C@H]2O[C@@](C)([C@@H]1OC)n1c3ccccc3c3c4c(c5c6ccccc6n2c5c31)C(=O)NC4 [Staurosporine] + CC1(C)CCC(c2ccc(Cl)cc2)=C(CN2CCN(c3ccc(C(=O)NS(=O)(=O)c4ccc(N[C@H](CCN5CCOCC5)CSc5ccccc5)c(S(=O)(=O)C(F)(F)F)c4)cc3)CC2)C1 [Navitoclax] (partner 0.5 µM)
Procedure, shortened: as §1

Sulindac + Dasatinib = compound: CC1=C(CC(=O)O)c2cc(F)ccc2/C1=C\c1ccc([S+](C)[O-])cc1 [Sulindac] + Cc1nc(Nc2ncc(C(=O)Nc3c(C)cccc3Cl)s2)cc(N2CCN(CCO)CC2)n1 [Dasatinib] (partner 0.075 µM)
Procedure, shortened: as §1

Row | Cell Line | relative viability ([1]; first compound 0.005 µM) | relative viability ([1]; first compound 0.01581 µM) | relative viability ([1]; first compound 0.05 µM) | relative viability ([1]; first compound 0.1581 µM) | relative viability ([1]; first compound 0.5 µM) | relative viability ([2]; first compound 0.005 µM) | relative viability ([2]; first compound 0.01581 µM) | relative viability ([2]; first compound 0.05 µM) | relative viability ([2]; first compound 0.1581 µM) | relative viability ([2]; first compound 0.5 µM) | relative viability ([3]; first compound 0.005 µM) | relative viability ([3]; first compound 0.01581 µM) | relative viability ([3]; first compound 0.05 µM) | relative viability ([3]; first compound 0.1581 µM) | relative viability ([3]; first compound 0.5 µM) | relative viability (Sulindac + Dasatinib; first compound 0.08 µM) | relative viability (Sulindac + Dasatinib; first compound 0.253 µM) | relative viability (Sulindac + Dasatinib; first compound 0.8 µM) | relative viability (Sulindac + Dasatinib; first compound 2.53 µM) | relative viability (Sulindac + Dasatinib; first compound 8 µM)
1 | NCI-H2126 | 0.64 | 0.262 | 0.4 | 0.279 | 0.211 | 0.353 | 0.339 | 0.348 | 0.33 | 0.327 | 0.915 | 0.624 | 0.461 | 0.433 | 0.339 | 0.558 | 0.585 | 0.597 | 0.57 | 0.671
2 | NCI-H2170 | 0.247 | – | 0.243 | 0.101 | 0.173 | 0.43 | – | 0.314 | 0.218 | 0.176 | 0.708 | 0.376 | 0.421 | 0.219 | 0.189 | 0.631 | 0.586 | 0.659 | 0.508 | 0.741
3 | NCI-H2228 | 0.288 | 0.185 | 0.192 | – | 0.116 | 0.209 | 0.215 | 0.3 | 0.102 | 0.0805 | 0.6 | 0.399 | 0.165 | 0.127 | 0.0586 | 0.592 | 0.596 | 0.375 | 0.549 | 0.526
4 | NCI-H2347 | 0.36 | 0.321 | 0.32 | 0.329 | 0.291 | 0.433 | 0.398 | 0.331 | 0.375 | 0.324 | 0.854 | 0.524 | 0.274 | 0.284 | 0.225 | 0.282 | 0.25 | – | 0.303 | 0.275
5 | NCI-H2405 | 0.417 | 0.174 | 0.14 | 0.0988 | 0.1 | 0.196 | 0.172 | 0.122 | – | 0.0886 | 0.132 | 0.061 | 0.0985 | 0.0939 | 0.0834 | 0.22 | 0.234 | 0.331 | 0.218 | 0.228
6 | NCI-H3122 | 0.183 | – | 0.177 | 0.167 | 0.105 | 0.248 | – | 0.225 | – | 0.171 | 1.04 | 0.46 | 0.993 | 0.672 | 0.223 | 0.79 | 0.825 | 0.74 | 0.705 | 0.894
7 | PC-3 [JPC-3] | 0.975 | 0.444 | 0.516 | 0.389 | 0.347 | 0.563 | 0.513 | 0.398 | 0.398 | 0.343 | 0.933 | – | 0.552 | 0.485 | 0.406 | 0.878 | 1.05 | 0.772 | 1.02 | 1.04
8 | PC-14 | 0.159 | 0.131 | 0.0585 | 0.0487 | 0.048 | 0.174 | 0.077 | 0.0379 | 0.0411 | 0.0434 | 0.901 | 0.562 | 0.887 | 0.0852 | 0.053 | 0.25 | 0.293 | – | 0.222 | 0.369
9 | RERF-LC-KJ | 0.501 | 0.423 | 0.375 | 0.205 | 0.202 | 0.914 | 0.916 | 0.475 | 0.4 | 0.26 | 1.14 | 0.665 | 0.479 | 0.244 | 0.236 | 1.03 | 0.973 | 0.692 | 0.802 | 0.838
10 | SK-LU-1 | 0.416 | 0.182 | 0.167 | 0.163 | 0.176 | 0.326 | 0.186 | 0.166 | 0.164 | 0.161 | 0.323 | 0.115 | 0.131 | 0.151 | 0.059 | 0.157 | 0.162 | 0.168 | 0.143 | 0.202
11 | SK-MES-1 | 0.543 | 0.277 | – | 0.145 | 0.141 | 0.235 | 0.232 | 0.193 | 0.163 | 0.147 | 0.925 | 0.329 | 0.28 | 0.173 | 0.134 | 0.336 | 0.367 | 0.366 | 0.352 | 0.331
12 | SW 1573 | 0.297 | 0.34 | 0.204 | 0.0927 | 0.0611 | 0.172 | 0.113 | 0.131 | 0.0619 | 0.081 | 0.898 | 0.297 | 0.193 | 0.0915 | 0.0731 | 0.392 | 0.691 | – | 0.574 | 0.497

From the supplement of paper PMC10307832
